Results taken from patent publication US20120202885A1, “METHODS, ASSAYS AND COMPOSITIONS FOR TREATING RETINOL-RELATED DISEASES” (ReVision Therapeutics, Inc., priority 2004, published 2012).

How the values were obtained:
Format in all cases: in vivo
[1] = system: ABCA4−/− mice; assay: Drug holiday after 28 days of HPR: A2E and precursors in eyecup extracts (HPLC); settings: for A2E and precursor (A2PE-H2 and A2PE) levels: 10 mg/kg 28 days
Procedure: HPR (10 mg/kg in DMSO) was administered to ABCA4−/− mice daily for a period of 28 days. Control ABCA4−/− mice received only DMSO for the same period. […] Importantly, the observed reductions in lipofuscin autofluorescence persist long after cessation of HPR therapy. HPR (10 mg/kg), or DMSO, administration was discontinued following 28 days of treatment and re-evaluated A2E and precursor levels after 2 weeks and after 4 weeks.
We examined eyecup extracts by HPLC and employed detection by absorbance and fluorimetry. Identity of the indicated peaks was confirmed by on-line spectral analysis and by co-elution with authentic standards. […] Further, the A2E and precursor (A2PE-H2 and A2PE) levels after a […] or 28-day drug holiday remained at or near the levels immediately following 28 days of treatment (i.e., ca. 50% reduction relative to control), although after the 28-day drug holiday, the amount of A2E and precursor (A2PE-H2 and A2PE) had increased by a few percentage points relative to the 12-day drug holiday levels. […] It is clear that peak fluorescence tracks with the abundance of A2E, A2PE and A2PE-H2.

[2] = system: ABCA4 null mutant mice; assay: 28-day HPR dose study: serum retinol, A2PE-H2, A2E, retinoids, retinal physiology and histology
Procedure: ABCA4 null mutant mice were given the indicated dose of HPR in DMSO (i.p.) daily for 28 days (n=4 mice per dosage group). At the end of the study period, blood samples were taken and serum was prepared. Following acetonitrile precipitation of serum proteins, the concentrations of retinol and HPR were determined from the soluble phase by LC/MS (see FIG. 8). Identity of the eluted compounds was confirmed by UV-vis absorption spectroscopy and co-elution of sample peaks with authentic standards.
Group averages from the data shown in panels A-G of FIG. 13 in Example 25 (28 day time points) are plotted to illustrate the strong correlation between increases in serum HPR and decreases in serum retinol (see FIG. 14). Reductions in serum retinol are highly correlated with reductions in A2E and precursor compounds (A2PE-H2). A pronounced reduction in A2PE-H2 in the 2.5 mg/kg dosage group (−47%) is observed when the serum retinol reduction is only 20%. The reason for this disproportionate reduction is related to the inherently lower ocular retinoid content in this group of 2-month old animals compared to the other groups. It is likely that if these animals had been maintained on the 2.5 mg/kg dose for a more prolonged period, a greater reduction in A2E would also be realized.
Panels D-F of FIG. 15 are electrophysiological measurements of rod function (panel D), rod and cone function (panel E) and recovery from photobleaching (panel F).
ABCA4 null mutant mice were given the indicated dose of HPR in DMSO or DMSO alone daily for 28 days (n=16 mice per treatment group). At study onset, mice in the 2.5 mg/kg group were 2 months of age, mice in the other treatment groups were 3 months of age. At the indicated times, representative mice were taken from each group (n=4) for analysis of A2E precursor compounds (see FIG. 13, A2PE-H2, panels A, C and E) and A2E (see FIG. 13, panels B, D and F). Eyes were enucleated, hemisected and lipid soluble components were extracted from the posterior pole by chloroform/methanol-water phase partitioning. Sample extracts were analyzed by LC. Identity of the eluted compounds was confirmed by UV-vis absorption spectroscopy and co-elution of sample peaks with authentic standards. Note: limitations in appropriately age and strain-matched mice in the 10 mg/kg group prevented analysis at the 14-day interval.
Treatment conditions are as described above.

[3] = system: wild type mice; assay: HPR given to wild type mice for 5 days, then illumination: serum and ocular retinoids; settings: 20 mg/kg
Procedure: In order to ensure that the observed effects of HPR in ABCA4 null mice were not due to the genetic mutation, HPR (20 mg/kg, i.p. in DMSO) was administered to wild type mice for 5 days. Control mice received only the DMSO vehicle. On the final day of HPR treatment, the mice were exposed to constant illumination (1000 lux for 10 min) in order “stimulate” the visual cycle to generate visual chromophore. Immediately following the illumination period, the animals were sacrificed and the concentrations of retinoids in serum and ocular tissue were determined. […] As in the previous study, HPR caused a significant reduction in serum retinol (˜55%), ocular retinol (˜40%) and ocular retinal (˜30%). Although HPR did accumulate within ocular tissues during the treatment period (˜5 μM), no effect on LRAT or Rpe65/isomerase activities was observed.

detection of HPR or HPR metabolites in the eyes ([1]; 28-day drug holiday): unable to detect
electrophysiology: recovery from photobleaching ([2]; 10 mg/kg daily for 28 days): delayed dark adaptation
SMILES: CC1=C(/C=C/C(C)=C/C=C/C(C)=C/C(=O)Nc2ccc(O)cc2)C(C)(C)CCC1 [HPR, N-(4-hydroxyphenyl)retinamide]
A2E and precursor (A2PE-H2 and A2PE) levels ([1]; then 12-day drug holiday): remain significantly reduced relative to control mice
A2E and precursor (A2PE-H2 and A2PE) levels ([1]; then 28-day drug holiday): remain significantly reduced relative to control mice
reduction of A2E and precursors relative to control ([1]; immediately following 28 days of treatment, level held after 12- or 28-day drug holiday): ca. 50%
reduction in A2PE-H2 ([2]; 2.5 mg/kg dosage group, 28 days): −47%
regeneration of visual chromophore ([2]; 10 mg/kg daily for 28 days): does not affect regeneration of visual chromophore
retinal morphology by light microscopy ([2]; 28 days): No aberrant morphology or compromise of the integrity in retinal cyto structure was observed
level of autofluorescence versus wild type ([2]; abcr null mutant mice, 28 days): comparable to that of an age-matched wild-type animal
lipofuscin autofluorescence in the RPE ([2]; abcr null mutant mice, 28 days): significantly reduces lipofuscin autofluorescence
A2PE-H2 and A2E during the study period ([2]; indicated doses daily for 28 days): dose-dependent reductions
serum retinol ([2]; summary statement): potently and reversibly reduces serum retinol
reduction in ocular retinal ([3]; i.p. in DMSO, wild type mice): ~30%
reduction in ocular retinol ([3]; i.p. in DMSO, wild type mice): ~40%
reduction in serum retinol ([3]; i.p. in DMSO, wild type mice): ~55%
inhibition in synthesis of retinyl esters or visual chromophore ([3]; i.p., 1000 lux for 10 min): no significant inhibition
effect on LRAT or Rpe65/isomerase activities ([3]; i.p., wild type mice): no effect
